Data as given in patent US8383608B2, “Imidazolidine compounds as androgen receptor modulators” (Dart Therapeutics LLC, priority 2008, dated 2013).
Read-outs that look alike come from different tables or passages of the source.

Legend:
[1] = target: T1, human androgen receptor (hAR) (Homo sapiens, UniProt P10275); test: Functional response (transactivation) test in HALP2 cells (HeLa stably expressing hAR and ARE-luciferase reporter); type: cell-based; conditions: for Emax: HeLa, read-out: % effect relative to DHT (100%)
T1 construct: expressed in transfected cells
T1 sequence (P10275 1-920): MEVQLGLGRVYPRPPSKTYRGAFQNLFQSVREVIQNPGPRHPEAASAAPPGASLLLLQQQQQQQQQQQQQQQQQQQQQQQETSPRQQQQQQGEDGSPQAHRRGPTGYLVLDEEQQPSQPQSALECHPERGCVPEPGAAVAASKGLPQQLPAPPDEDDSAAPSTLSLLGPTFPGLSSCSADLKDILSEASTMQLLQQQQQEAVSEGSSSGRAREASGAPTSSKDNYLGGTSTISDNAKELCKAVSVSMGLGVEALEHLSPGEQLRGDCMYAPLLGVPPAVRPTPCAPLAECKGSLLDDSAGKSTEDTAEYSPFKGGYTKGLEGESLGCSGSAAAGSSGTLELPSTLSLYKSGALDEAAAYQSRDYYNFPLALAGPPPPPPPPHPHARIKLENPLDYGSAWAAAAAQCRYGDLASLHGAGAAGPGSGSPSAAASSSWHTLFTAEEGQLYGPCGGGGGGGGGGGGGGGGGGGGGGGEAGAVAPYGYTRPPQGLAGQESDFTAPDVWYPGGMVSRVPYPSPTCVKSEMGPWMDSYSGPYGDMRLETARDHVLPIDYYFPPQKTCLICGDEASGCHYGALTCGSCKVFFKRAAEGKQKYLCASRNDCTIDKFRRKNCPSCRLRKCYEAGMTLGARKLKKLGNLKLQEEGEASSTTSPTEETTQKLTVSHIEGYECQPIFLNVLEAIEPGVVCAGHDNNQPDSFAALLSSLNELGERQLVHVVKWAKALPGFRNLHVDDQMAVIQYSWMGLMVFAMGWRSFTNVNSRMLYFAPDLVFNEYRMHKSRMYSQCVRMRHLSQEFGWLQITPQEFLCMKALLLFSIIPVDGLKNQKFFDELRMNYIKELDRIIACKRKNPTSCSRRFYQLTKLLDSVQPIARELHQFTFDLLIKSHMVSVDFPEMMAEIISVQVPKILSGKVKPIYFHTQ
Source text: This test constitutes a method of identifying pure or partial agonists which mimic the effects of natural hormones, such as DHT (dihydrotestosterone) in the present case or, on the other hand, antagonists which inhibit them.
For this transactivation test, plasmids encoding a reporter gene and the human androgen receptor (hAR) are introduced together by transfection into the HeLa cell line. The reporter plasmid contains luciferase cDNA under the control of the AREs contained in the promoter sequences of the probasin gene (3xpbAREminicoll-luciferase/pGL3-puro). The expression of the reporter gene constitutes an indication of the transcriptional activity of hAR. It also encodes a protein allowing the cells expressing it to resist a treatment with puromycin. The plasmid encoding hAR contains the cDNA of hAR under the control of the Cytomegalovirus (CMV) promoter. It also encodes a protein allowing the cells expressing it to resist a treatment with neomycin. The treatment of cells with increasing amounts of potentially agonistic compounds will increase the expression of the reporter gene. To detect antagonists, on the other hand, increasing doses of test compounds are tested in the presence of […] of DHT. The expression of the reporter gene, which is constant for each dose of DHT, decreases when the concentration of the test compounds increases.
The functional response test is conducted on 96-well plates. The HALP2 cells are seeded (20,000 cells per well) in culture medium (DMEM with phenol red, 1% de Pen-Strep, 1% of non-essential amino acids, 10% of fetal bovine serum, 400 μg/mL Geneticin and 0.150 puromycin) on day 1. After 24 hours incubating at 37° C., 5% CO2, high humidity (day 2) the medium is removed and refreshed with test medium (DMEM without phenol red supplemented, 1% de Pen-Strep, 1% of non-essential amino acids and 5% of desteroidised foetal bovine serum). After another 24 hours incubating at 37° C., 5% CO2, high humidity (day 3), the medium is renewed once more before the phase of stimulation.
The cells are placed in contact with the compounds for 24 hours at 37° C., 5% CO2, high humidity. On day 4 the medium is then removed and the luciferase activity reading reagent is placed in contact with the cells in accordance with the manufacturer's instructions (SteadyLite, Perkin-Elmer). The luminescence produced is detected on an Envision reader (Perkin-Elmer). […]
The determination of the relative agonism/antagonism of a compound is obtained by comparing the maximal activation obtained with said compound and the activation obtained with DHT alone (100%).

[2] = test system: castrated immature young rats; test: Adapted model of Hershberger's test; type: in vivo, Sprague Dawley rats; conditions: Rattus norvegicus, po, 96 h, ORX control = 0%, SHAM control = 100%, per os daily for 4 days, dose tested 10 mg/kg
Method: The selective modulating activity of the androgen receptor is tested in a model of castrated immature young rats. This model, which is widely recognised for evaluating the anabolic effects of androgen compounds on the muscles and on the prostate, has been described by Hershberger et al. 1953 Proc. Soc. Expt. Biol. Med. 83:175.
The method is based on the measurement of the well-known effects of androgens on the growth of the muscles and the accessory male sex organs in animals, and also in men. The consequences of castration appear in the form of a rapid involution and atrophy of the prostate and the seminal vesicles and of the anus-lifting muscle (levator ani). This effect may be completely compensated by an exogeneous administration of androgen, in particular of testosterone. The model is thus used to determine the capacity of the tested molecules to maintain the weight of the accessory sex and muscle organs in immature castrated rats, and therefore their androgenic efficacy.
Immature young Sprague Dawley rats (4 to 5 weeks old) weighing approximately 140-160 g (Charles River, Les Oncins, FRANCE) are distributed randomly in various groups and are kept in an environment at 22±2° C. with an alternating day/night cycle of 12 hours and ad libitum access to food and drink.
On day 0 (seven days before commencement of the first treatment) the rats are weighed individually then anaesthetised with an intraperitoneal dose of Ketamine/xylazine (85/15 mg/kg, approximately 2 ml/kg). Each animal is then placed on a sterile field and the abdomen and the scrotum are disinfected with Betadine and 70% alcohol. In the case of the orchidectomised control animals (ORX), the testicles are removed via an incision in the middle of the scrotum. A sterile suture is then made to ligature the supra-testicular portion of the tissue prior to surgical section of each testicle. The groups of animals to be treated by the tested compounds are operated on in an identical manner. In the case of the intact control animals (SHAM), the testicles are similarly extracted and reintroduced delicately to their original location. The site of surgical intervention is then sutured using sterile suture thread, and the site is disinfected again by application of Betadine. Each animal is then kept under a sterile pad until it awoke, before being returned to its cage. The animals are kept in an environment at 22±2° C. with an alternating day/night cycle of 12 hours and ad libitum access to food and drink. The animals are treated with the molecules to be tested from post-surgery day 7 and until day 10 preceding sacrifice (day 11).
The rats are split into groups and treated daily from day 7 to day 10 under the conditions defined below: • 1. SHAM control group: Vehicle (PEG400/DMSO/water; 79/1/20) administered per os. • 2. ORX control group: Vehicle (PEG400/DMSO/water; 79/1/20) administered per os. • 3. Treated ORX group: The tested compounds are administered individually per os in suspension in the vehicle described above, in a dose of 10 mg/kg.
After treatment for 4 successive days, the animals are decapitated using a guillotine. The levator ani and the ventral prostate are removed and weighed individually. For comparing inter-experimental data, the weight of each organ is standardised and expressed in milligrammes per 100 g of the weight of the animal (W). For each organ, the average of the standardised weights of the ORX control group is fixed by definition at 0% and the average of the standardised weights of the SHAM control group is fixed by definition at 100%. The efficacy of each product is expressed as a percentage and calculated using the following formula: (Wtreated−WORX)/(WSHAM−WORX)×100
A subsequent ANOVA test is used for statistical analysis to identify the differences between groups.

[3] = maximal activation by the compound compared with DHT alone (100%), HALP2 cells
[4] = agonism: concentration inducing 50% of the maximum agonistic effect of the tested compound, HALP2 cells, 24 hours, read-out: EC50
[5] = levator ani weight, read-out: Anabolic activity %
[6] = ventral prostate weight, read-out: Androgenic activity % (Prostate)

SMILES	Emax [1, 3] [%]	EC50 [1, 4] [nM]	response vs control in vivo at 10 mg/kg [2, 5] [%]	response vs control in vivo at 10 mg/kg [2, 6] [%]	EC50 [1] [nM]	Emax [1] [%]	% effect relative to DHT (100%) [1, 3]
Cc1cccc(C2(CO)C(=O)N(c3ccc(C#N)c(C(F)(F)F)c3)C(=O)N2C)c1 (centres unmarked) [Example 21, 4-[2,5-Dioxo-4-hydroxymethyl-3-methyl-4-(3-methylphenyl)imidazolidin-1-yl)-2-trifluoromethylbenzonitrile]	6 to 20	501 to 1000	0.5 to 25	0			
CN1C(=O)N(c2ccc(C#N)c(C(F)(F)F)c2)C(=O)C1(CO)c1cccc(C(F)(F)F)c1 (centres unmarked) [Example 15, 4-[2,5-Dioxo-4-hydroxymethyl-3-methyl-4-(3-trifluoromethylphenyl)imidazolidin-1-yl)-2-trifluoromethylbenzonitrile]	21 to 40	101 to 500	25 to 50	0			
CN1C(=O)N(c2ccc(C#N)c(C(F)(F)F)c2)C(=O)C1(CO)c1cccc(C#N)c1 (centres unmarked) [Example 14, 4-[4-(3-Cyanophenyl)-2,5-dioxo-4-hydroxymethyl-3-methylimidazolidin-1-yl)-2-trifluoromethylbenzonitrile]	21 to 40	101 to 500	75 to 100	25 to 50			
CC(C)[C@H](N)C(=O)OCC1(c2ccccc2)C(=O)N(c2ccc(C#N)c(C(F)(F)F)c2)C(=O)N1C (stereo partly drawn) [Example 25, (2S)-1-[1-(4-Cyano-3-trifluoromethylphenyl)-2,5-dioxo-3-methyl-4-phenylimidazolidin-4-yl]methoxy-3-methyl-1-oxobutan-2-aminium chloride]					11 to 100	21 to 40	
C#CCN1C(=O)N(c2ccc(C#N)c(C(F)(F)F)c2)C(=O)C1(CO)c1ccccc1 (centres unmarked) [Example 19]	6 to 20	101 to 500	75 to 100	25 to 50			
CN1C(=O)N(c2ccc(C#N)c(C(F)(F)F)c2)C(=O)C1(CO)c1ccc(C#N)cc1 (centres unmarked) [Example 13, 4-[4-(4-Cyanophenyl)-2,5-dioxo-4-hydroxymethyl-3-methylimidazolidin-1-yl)-2-trifluoromethylbenzonitrile]	0 to 5		0.5 to 25	0.5 to 25			
N#Cc1ccc(N2C(=O)NC(CO)(c3ccccc3)C2=O)cc1C(F)(F)F (centres unmarked) [Example 20, 4-[2,5-Dioxo-4-hydroxymethyl-4-phenylimidazolidin-1-yl]-2-trifluoromethylbenzonitrile]							§ (0-5%)
N#CCN1C(=O)N(c2ccc(C#N)c(C(F)(F)F)c2)C(=O)C1(CO)c1ccccc1 (centres unmarked) [Example 18, 4-[3-Cyanomethyl-2,5-dioxo-4-(hydroxymethyl)-4-phenylimidazolidin-1-yl]-2-trifluoromethylbenzonitrile]	6 to 20	501 to 1000	75 to 100	0.5 to 25			
CN1C(=O)N(c2ccc(C#N)c(C(F)(F)F)c2)C(=O)C1(CO)c1cccc(Cl)c1 (centres unmarked) [Example 9]	41 to 50	0.01 to 10	50 to 75	0.5 to 25			
CCC(O)C1(c2ccccc2)C(=O)N(c2ccc(C#N)c(C(F)(F)F)c2)C(=O)N1C (single isomer, unassigned) [Example 2, 4-[2,5-Dioxo-4-(1-hydroxypropyl)-3-methyl-4-phenylimidazolidin-1-yl]-2-trifluoromethylbenzonitrile]	0 to 5						
CN1C(=O)N(c2ccc(C#N)c(C(F)(F)F)c2)C(=O)C1(COP(=O)(O)O)c1ccccc1 (centres unmarked) [Example 24, [1-(4-Cyano-3-trifluoromethylphenyl)-2,5-dioxo-3-methyl-4-phenylimidazolidin-4-yl]methyl dihydrogen phosphate]	21 to 40	0.01 to 10					
CN1C(=O)N(c2ccc(C#N)c(C(F)(F)F)c2)C(=O)C1(COC(=O)CCC(=O)O)c1ccccc1 (centres unmarked) [Example 26, 4-[1-(4-Cyano-3-trifluoromethylphenyl)-2,5-dioxo-3-methyl-4-phenylimidazolidin-4-yl]methoxy-4-oxobutanoic acid]					11 to 100	21 to 40	
